Here are results for eleven compounds from PMC10780244, “Antileishmanial Effect of 1,5- and 1,8-Substituted Fused Naphthyridines” (Molecules, 2023).

Each structure is given as a SMILES string. Some results are limits rather than exact numbers.

Series [1] relates to intramacrophagic iRFP-L. infantum amastigotes from murine spleens. The series is described as follows: Ex vivo intramacrophagic amastigote viability assay (iRFP fluorescence). As to conditions: for EC50: Leishmania infantum, ex vivo murine splenic explants, 72 h, read-out: Intracellular Amastigotes EC50; for SI: ratio CC50 (splenic macrophages) / EC50 (intramacrophagic amastigotes); for antileishmanial activity against Leishmania amastigotes (in words): summary in discussion. It counts as cell-based, Leishmania infantum. Here is the method:
The 1,5- and 1,8-fused naphthyridine derivatives were evaluated as antileishmanial agents in assays using two forms of L. infantum amastigotes: axenic amastigotes recovered from bone marrow cells of infected BALB/c mice and intramacrophagic amastigotes obtained from splenic explants of the same subjects. The L. infantum strain used is a genetically modified strain previously engineered by our group to constitutively express the infrared protein iRFP from Rhodopseudomonas palustris bacteriophytochrome (iRFP L. infantum). This strain allows monitoring the viability of both forms of the parasite by quantifying the fluorescence emitted at 700 nm by the iRFP protein produced by living amastigotes.
(§1) Amastigotes obtained from mouse bone marrow cells were used to perform a first screening with the complete series of fused 1,5- and 1,8-naphthyridines. […] The toxicity of these selected compounds was assessed in non-infected splenic cells and the cytotoxic concentration (CC50) value obtained was used to calculate the selective index (SI). The oral tolerability of these same compounds was tested by calculating the viability of murine intestinal organoids exposed to two concentrations (50 and 25 µM).
Intramacrophagic amastigotes were obtained by cutting spleens into small pieces that were incubated for 25 min with 0.5 mL of collagenase D (2 mg/mL) (Merck, Darmstadt, Germany) dissolved in 4.5 mL buffer (10 mM HEPES, pH 7.4, 150 mM NaCl, 5 mM KCl, 1 mM MgCl2 and 1.8 mM CaCl2). The cell suspension was filtered through a 100 µm cell strainer. After erythrocyte lysis (150 mM NH4Cl, 1 mM KHCO3, 0.1 mM EDTA), splenocytes were centrifuged three times at 500× g for 7 min at 4 °C, with PBS washes between each centrifugation. The splenocyte suspension containing intramacrophagic amastigotes was resuspended in RPMI medium (Gibco, Fisher Scientific, Waltham, MA, USA) supplemented with 20% FBS, 1 mM sodium pyruvate, 24 mM NaHCO3, 2 mM L-glutamine, 1× RPMI vitamins, 25 mM HEPES and antibiotic cocktail.
For the ex vivo intramacrophagic amastigote assay, 40 μL of one-half or one-third serial dilutions of each diluted in supplemented RPMI medium, were added to black 384-well optical-bottom black plates containing 40 μL of murine splenocytes obtained as described above. Positive controls (containing 10 μM of AMB) and negative controls (containing 0.1% v/v DMSO) were included. The plates were incubated at 37 °C and 5% CO2, for a maximum period of 72 h and the assays were performed by triplicate.
The viability of axenic and intramacrophage amastigotes was calculated measuring the fluorescence emitted at 700 nm by the iRFP protein from live parasites and recorded by an Odyssey infrared imaging system (Li-Cor, NE, USA). The fluorescence emitted by the negative control wells was considered 100% viability, whereas the fluorescence emitted by the positive control wells, was adjusted to 0% viability.
Fluorescence emitted by intramacrophage amastigotes were plotted against the drug concentration using the nonlinear fit analysis provided by the Sigma Plot 10.1 statistical package to obtain EC50 values.

Series [2] in a line: Drug tolerance in murine intestinal organoids (alamarBlue). It counts as cell-based, mouse. As to conditions: Balb/c, mouse, murine intestinal organoids, 72 h exposure. On the procedure: as §1
Preparation and maintenance of murine intestinal organoids cultures were performed following the protocols published by Stemcell Technologies™ (https://www.stemcell.com/intestinal-epithelial-organoid-culture-with-intesticult-organoid-growth-medium-mouse-lp.html#protocols, accessed on 14 December 2023) with some modifications. Briefly, a section of small intestine from a Balb/c mouse was extracted and washed with ice-cold PBS. This section was cut into pieces around 2 mm each, washed 15–20 times with ice-cold PBS and incubated with Gentle Cell Dissociation Reagent (Stemcell Technologies™, Vancouver, BC, Canada) for 20 min. Then, the pieces were resuspended in ice-cold PBS with 0.1% BSA and left to settle at the bottom of the tube. The supernatant was collected and filtered through a 70 µm strainer. This process was repeated a total of four times obtaining different fractions. Cells from these fractions were centrifugated at 300× g for 5 min at 4 °C, washed with ice-cold PBS + 0.1% BSA and resuspended on 10 mL of ice-cold DMEM/F12 supplemented with glutamine and HEPES 15 mM (Gibco, Thermo Fisher Scientific, Waltham, MA, USA). After the evaluation under a microscope, the fraction with the highest crypt number but the lowest detritus presence was chosen. This fraction was centrifugated at 200× g for 5 min at 4 °C and the pellet was resuspended in a 1:1 mix of Geltrex GFR LDEV-free (Gibco, Fisher Scientific, Waltham, MA, USA) and IntestiCult™ Organoid Grow Medium Mouse (Stemcell Technologies™, Vancouver, BC, Canada). Fifty microliters of the suspension were pipetted into the middle of each well of a pre-heated 24-well plate and incubated at 37 °C for 10 min to allow polymerization of the matrix. In the end, 500 µL of IntestiCult™ Organoid Grow Medium was added to each well. The plates were incubated at 37 °C and 5% CO2, changing the culture medium every 48 h. Organoids were split 1 into 4 plates after 7 days.
Drug tolerance assays using murine intestinal organoids were performed in 384-well plates, following a protocol based on previous works and introducing several modifications. Briefly, organoids were prepared discarding the culture medium and adding 800 µL of Gentle Cell Dissociation Reagent (Stemcell Technologies™, Vancouver, BC, Canada) directly on top of matrix domes. After 1 min incubation at room temperature, the matrix was broken by pipetting, and the content of the wells was retrieved. The suspension was incubated at room temperature for 10 min on a rocking platform at 20 rpm, and centrifugated at 300× g for 5 min at 4 °C. The pellet was resuspended in 10 mL of ice-cold DMEM/F12 (Gibco, Fisher Scientific, Waltham, MA, USA) supplemented with glutamine and HEPES 15 mM and centrifugated again at 200× g for 5 min at 4 °C. Cells were resuspended in a 1:1 mix of Geltrex GFR LDEV-free and IntestiCult™ Organoid Grow Medium Mouse (Stemcell Technologies™, Vancouver, Canada). The final volume of the mix was calculated to achieve a 4-fold dilution in the final plate compared to the original plate. The mix was distributed in a 384-well plate (8 µL/well) which was incubated at 37 °C for 10 min. After that, 32 µL of IntestiCult™ Organoid Grow Medium Mouse (Stemcell Technologies™, Vancouver, Canada) were added to each well. The plate was incubated at 37 °C and 5% CO2 and after 4 days, mature organoids were exposed to drugs, alone or combined. For positive control, hydrogen peroxide at the final concentration of 0.15 % v/v was used. […]
In general terms: Alamar Blue is a resazurin reagent that responds to reducing activity.

A word on the EC50: it is the concentration at which the effect is half-maximal. A word on the viability: it is a per cent measure of how many cells are alive, often set against a control. Take `O=C1Oc2ccccc2C2Nc3ccc(Br)nc3[C@@H](c3ccccc3)C12` (some centres unmarked) [Compound 6b]: in series [1], the half-maximal effective concentration (EC50) turned out to be 12.9 ± 0.82 µM and the SI is reported as 4.3. In series [2], this compound gave a viability at 72 h, 25 µM of 72 ± 5% and a viability at 72 h, 50 µM of 60 ± 7%.
Taken in the same sequence, the figures for `COc1ccc2nc3c(c(-c4ccccc4)c2n1)c(=O)oc1ccccc13` [Compound 7c] were 37 ± 2.87 µM, 2.6, 99 ± 4% and 85 ± 13%.
`Cc1ccc(S(=O)(=O)N2CC3C(Nc4cccnc4[C@H]3c3ccccc3)c3ccccc32)cc1` (some centres unmarked) [Compound 8a]: in series [1], the EC50 was found to be 5.3 ± 0.71 µM and the SI was determined as 8.5. For the same compound, in series [2], the viability at 72 h, 25 µM came to 93 ± 7% and the viability at 72 h, 50 µM was found to be 89 ± 10%.
Consider `COc1ccc2c(n1)[C@@H](c1ccccc1)C1CN(S(=O)(=O)c3ccc(C)cc3)c3ccccc3C1N2` (some centres unmarked) [Compound 8c], for which the EC50 in series [1] turned out to be 4.93 ± 0.35 µM. For the same compound, in series [2], the viability at 72 h, 25 µM was greater than 100% and the viability at 72 h, 50 µM came to 100%.
Taken in the same sequence, the figures for `Cc1ccc(S(=O)(=O)N2CC3C(Nc4ccc(Br)nc4[C@H]3c3ccccc3)c3ccccc32)cc1` (some centres unmarked) [Compound 8d] were 34.4 ± 9.7 µM, 4 ± 1% and 3 ± 1%.
Consider `Fc1ccc2c(c1)C1Nc3ncccc3[C@@H](c3ccccc3)C1CO2` (some centres unmarked) [Compound 10b], for which, in series [1], the 50% effective concentration (EC50) turned out to be 7.57 ± 0.44 µM and the SI came out at 6.7. In series [2], this compound gave a viability at 72 h, 25 µM of 99 ± 8% and a viability at 72 h, 50 µM of 90%.
On to `c1ccc(-c2c3c(nc4ncccc24)-c2ccccc2OC3)cc1` [Compound 11a], for which the concentration for a half-maximal effect (EC50) in series [1] amounted to 7.7 ± 0.29 µM. In series [2], this compound showed a viability at 72 h, 25 µM of 92 ± 1% and a viability at 72 h, 50 µM of 96 ± 1%.
On to `O=c1oc2ccccc2c2nc3ncccc3c(-c3ccccc3)c12` [Compound 13a], for which, in series [1], the EC50 is 10.6 ± 1.21 µM, the SI came out at 3.3 and the “antileishmanial activity against Leishmania amastigotes (in words)” value is given as “significant antileishmanial activity”. In series [2], this compound showed a viability at 72 h, 25 µM of 87 ± 15% and a viability at 72 h, 50 µM of 53 ± 5%.
For `O=c1oc2ccccc2c2nc3ncc(Br)cc3c(-c3ccccc3)c12` [Compound 13b], in series [1], the EC50 turned out to be 7.53 ± 0.97 µM and the SI was greater than 6.6. For the same compound, in series [2], the viability at 72 h, 25 µM came to 90 ± 5% and the viability at 72 h, 50 µM is 61 ± 19%.
Take `Cc1ccc(S(=O)(=O)N2CC3C(Nc4ncccc4C3c3ccccc3)c3ccccc32)cc1` (centres unmarked) [Compound 14a]: in series [1], the EC50 was 9.34 ± 0.77 µM, the SI is 2.9 and the “antileishmanial activity against Leishmania amastigotes (in words)” value was “significant antileishmanial activity”. In addition, in series [2], the viability at 72 h, 25 µM amounted to 90 ± 9% and the viability at 72 h, 50 µM turned out to be 56 ± 14%.
Taken in the same sequence, the figures for `Cc1ccc(S(=O)(=O)N2Cc3c(nc4ncc(Br)cc4c3-c3ccccc3)-c3ccccc32)cc1` [Compound 15b] were 6.16 ± 0.54 µM, 4.0, “significant antileishmanial activity”, 58 ± 16% and 13 ± 3%.
